This is an account of results in ChEMBL document CHEMBL1201862, “PubChem BioAssay data set” (2004).

Some test systems named below: COLO 205; HCT-15; HL-60; HOP-62; MDA-MB-435; NCI-H460; NCI-H522; OVCAR-3; OVCAR-8; PC-3; RXF 393; SK-MEL-28; SNB-75; SR; UACC-62; UO-31; A549; SF-268; SW-620.
Common to all, as to assay: NCI anticancer screen, dose series, 48 h

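Assay format: 96-well plates, 48-hour exposure. The concentration for 50% growth inhibition is given as GI50.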 The source made the active and inactive calls. No stated cut-off is given here; in the data, active = GI50 up to about 1.1 µM and inactive = higher.

Take `COc1cc(CN(C)N2C(=O)c3cccc4cc([N+](=O)[O-])cc(c34)C2=O)cc(OC)c1OC`: the GI50 with COLO 205 was > 100 µM (inactive); in the assay on HCT-15, > 100 µM; in the assay on HL-60, > 100 µM (inactive); in the assay with HOP-62, 16.7 µM (inactive); with MDA-MB-435 it was > 100 µM (inactive); with NCI-H460, > 100 µM (inactive). Also, the GI50 is 70.3 µM (inactive) in the assay on NCI-H522; > 100 µM (inactive) in the assay with OVCAR-3; > 100 µM (inactive) with OVCAR-8; > 100 µM (inactive) with PC-3; 14.1 µM (inactive) with RXF 393; > 100 µM (inactive) in the assay on SK-MEL-28. For the same molecule, the GI50 is 25.2 µM (inactive) in the assay with SNB-75, > 100 µM (inactive) in the assay on SR, > 100 µM (inactive) with UACC-62 and > 100 µM (inactive) in the assay with UO-31.

For `COc1nc(Cl)nc(N[C@H](C)c2c3ccccc3cc3ccccc23)n1`, the GI50 with A549 is 27.7 µM (inactive); with COLO 205, 14.4 µM (inactive); in the assay on HCT-15, 13.3 µM; in the assay with HL-60, 19.1 µM (inactive); in the assay with HOP-62 it was 14.9 µM (inactive); in the assay on MDA-MB-435, 4.31 µM (inactive). Further, the GI50 in the assay on NCI-H460 is 17 µM (inactive); in the assay on NCI-H522 it was 7.6 µM (inactive); with OVCAR-3, 11.1 µM (inactive); with OVCAR-8, 14.8 µM (inactive); with PC-3 it was 14.9 µM (inactive); in the assay on RXF 393, 12.5 µM (inactive). Also, the GI50 in the assay on SF-268 was 18 µM (inactive); with SK-MEL-28, 2.3 µM (inactive); with SNB-75, 21.8 µM (inactive); in the assay with SW-620, 15.2 µM (inactive); in the assay on UACC-62 it was 0.628 µM (active); with UO-31 it was 16.9 µM (inactive).

With `Cc1cccc2sc(-c3ccc(O)cc3)nc12`, the GI50 in the assay on A549 is 12.8 µM (inactive); with COLO 205 it was 14.9 µM (inactive); with HCT-15, 12.6 µM; in the assay on HL-60 it was 15.9 µM (inactive); with MDA-MB-435, 11 µM (inactive); in the assay with NCI-H460, 18.1 µM (inactive). Besides, the GI50 was 16.3 µM (inactive) in the assay with NCI-H522; 16.1 µM (inactive) in the assay with OVCAR-3; 16.7 µM (inactive) in the assay on OVCAR-8; 17.5 µM (inactive) in the assay on PC-3; 16.9 µM (inactive) in the assay with RXF 393; 16.6 µM (inactive) in the assay on SF-268. Moreover, the GI50 in the assay on SK-MEL-28 is 18.5 µM (inactive); in the assay on SNB-75 it was 12.6 µM (inactive); in the assay on SR, 22 µM (inactive); in the assay with SW-620, 11.5 µM (inactive); in the assay with UACC-62 it was 16 µM (inactive); in the assay on UO-31, 13.6 µM (inactive).

For `CS(=O)(=O)c1ccc2nc(-c3ccc(O)cc3)sc2c1`, the GI50 in the assay on A549 was 16.4 µM (inactive); in the assay on COLO 205, 22.2 µM (inactive); with HCT-15 it was 16.9 µM; in the assay with HL-60, 21.2 µM (inactive); in the assay on MDA-MB-435, 18 µM (inactive); in the assay with NCI-H460 it was 19.4 µM (inactive). Besides, the GI50 was 13.9 µM (inactive) in the assay with NCI-H522; 16.6 µM (inactive) in the assay with OVCAR-3; 20.5 µM (inactive) in the assay with OVCAR-8; 17.5 µM (inactive) with PC-3; 16.9 µM (inactive) in the assay on RXF 393; 15.5 µM (inactive) in the assay with SF-268. Further, the GI50 in the assay on SR is 10.1 µM (inactive); with SW-620, 20.7 µM (inactive); with UACC-62, 17.9 µM (inactive); in the assay with UO-31, 14.8 µM (inactive).
